Measurements as given in patent US20250171495A1, “MUTLI-TARGETED SERINE PROTEASE INHIBITORS FOR TREATMENT OF CANCER AND VIRAL INFECTION” (Washington University, priority 2023, published 2025).
Read-outs that look alike come from different tables or passages of the source. Values belong to the molecule of their own block, whether it stands above or below them.

Tests used:
Format in all cases: biochemical
TMPRSS2 [1] = target: T1, TMPRSS2 (Homo sapiens, UniProt O15393); test: Fluorogenic kinetic enzyme inhibitor assay, TMPRSS2; design: purchased Cusabio Technology CSB-YP023924HU
Target sequence in this assay (O15393 106-492 limits assumed): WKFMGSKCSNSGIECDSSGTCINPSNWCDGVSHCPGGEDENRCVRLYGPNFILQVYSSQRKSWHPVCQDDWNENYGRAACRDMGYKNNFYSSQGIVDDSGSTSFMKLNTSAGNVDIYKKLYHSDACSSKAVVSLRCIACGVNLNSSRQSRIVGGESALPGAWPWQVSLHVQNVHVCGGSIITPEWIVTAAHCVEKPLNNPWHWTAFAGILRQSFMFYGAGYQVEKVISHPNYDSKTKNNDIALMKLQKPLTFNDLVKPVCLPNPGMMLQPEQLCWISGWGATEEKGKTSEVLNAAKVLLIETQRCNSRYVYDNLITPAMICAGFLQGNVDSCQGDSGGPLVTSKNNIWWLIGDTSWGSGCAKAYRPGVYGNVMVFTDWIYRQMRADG

matriptase [2] = target: T2, matriptase (Homo sapiens, UniProt Q9Y5Y6); test: Fluorogenic kinetic enzyme inhibitor assay, matriptase; conditions: read-out: Matriptase IC50
T2 construct: purchased R&D Systems 3946-SEB-010
T2 sequence (Q9Y5Y6 615-855 limits assumed): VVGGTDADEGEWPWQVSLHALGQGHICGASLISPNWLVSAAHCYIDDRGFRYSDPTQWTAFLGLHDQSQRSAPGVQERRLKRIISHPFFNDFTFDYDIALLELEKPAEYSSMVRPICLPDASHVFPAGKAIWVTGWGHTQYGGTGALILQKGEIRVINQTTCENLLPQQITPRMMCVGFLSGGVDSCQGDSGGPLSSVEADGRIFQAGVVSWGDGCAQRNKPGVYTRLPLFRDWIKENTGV

TMPRSS2 [3] = target: T1, TMPRSS2; test: PS-SCL / HyCoSuL substrate specificity screening, TMPRSS2
Target sequence in this assay (O15393 whole entry): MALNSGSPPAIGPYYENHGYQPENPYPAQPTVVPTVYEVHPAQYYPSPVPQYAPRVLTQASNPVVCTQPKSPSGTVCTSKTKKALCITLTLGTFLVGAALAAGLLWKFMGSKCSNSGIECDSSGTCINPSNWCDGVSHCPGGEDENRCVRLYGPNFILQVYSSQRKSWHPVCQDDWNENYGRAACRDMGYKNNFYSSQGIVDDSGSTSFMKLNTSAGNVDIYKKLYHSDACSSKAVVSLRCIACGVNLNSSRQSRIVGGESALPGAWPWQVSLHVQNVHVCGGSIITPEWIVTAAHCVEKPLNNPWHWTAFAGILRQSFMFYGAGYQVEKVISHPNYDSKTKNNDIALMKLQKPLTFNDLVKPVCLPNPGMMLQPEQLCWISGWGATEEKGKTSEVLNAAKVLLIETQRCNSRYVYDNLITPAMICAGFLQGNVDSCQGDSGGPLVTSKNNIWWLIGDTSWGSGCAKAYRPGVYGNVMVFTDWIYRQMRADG

hepsin = target: T3, hepsin (Homo sapiens, UniProt P05981); test: HyCoSuL P4-P2 substrate specificity screening, hepsin
T3 construct: purchased R&D Systems 4776-SE-010
T3 sequence (P05981 163-417 limits assumed): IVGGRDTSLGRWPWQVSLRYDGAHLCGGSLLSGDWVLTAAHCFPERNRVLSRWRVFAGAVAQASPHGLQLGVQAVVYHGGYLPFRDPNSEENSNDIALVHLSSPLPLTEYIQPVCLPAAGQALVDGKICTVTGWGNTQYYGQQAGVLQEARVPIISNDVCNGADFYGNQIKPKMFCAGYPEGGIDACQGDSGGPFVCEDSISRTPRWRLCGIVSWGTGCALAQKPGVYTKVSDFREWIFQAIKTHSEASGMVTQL
T3 sequence (P05981 1-162 partner limits assumed): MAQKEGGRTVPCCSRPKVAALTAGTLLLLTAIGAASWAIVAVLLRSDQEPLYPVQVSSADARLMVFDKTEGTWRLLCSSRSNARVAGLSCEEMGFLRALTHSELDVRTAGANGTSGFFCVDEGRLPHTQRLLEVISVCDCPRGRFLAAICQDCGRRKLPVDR

HGFA = target: T4, HGFA (Homo sapiens, UniProt Q04756); test: HyCoSuL P4-P2 substrate specificity screening, HGFA
T4 sequence (Q04756 373-655): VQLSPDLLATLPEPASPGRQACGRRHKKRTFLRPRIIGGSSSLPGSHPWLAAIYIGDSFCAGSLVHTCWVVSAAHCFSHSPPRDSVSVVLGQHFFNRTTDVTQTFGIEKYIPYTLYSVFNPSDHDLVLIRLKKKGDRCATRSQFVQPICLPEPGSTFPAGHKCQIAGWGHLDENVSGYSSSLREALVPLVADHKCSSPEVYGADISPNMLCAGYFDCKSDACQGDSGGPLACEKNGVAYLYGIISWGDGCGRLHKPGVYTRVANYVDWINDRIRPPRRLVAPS

matriptase [4] = target: T5, matriptase (Homo sapiens, UniProt Q9Y5Y6); test: HyCoSuL P4-P2 substrate specificity screening, matriptase
T5 sequence (Q9Y5Y6 1-855): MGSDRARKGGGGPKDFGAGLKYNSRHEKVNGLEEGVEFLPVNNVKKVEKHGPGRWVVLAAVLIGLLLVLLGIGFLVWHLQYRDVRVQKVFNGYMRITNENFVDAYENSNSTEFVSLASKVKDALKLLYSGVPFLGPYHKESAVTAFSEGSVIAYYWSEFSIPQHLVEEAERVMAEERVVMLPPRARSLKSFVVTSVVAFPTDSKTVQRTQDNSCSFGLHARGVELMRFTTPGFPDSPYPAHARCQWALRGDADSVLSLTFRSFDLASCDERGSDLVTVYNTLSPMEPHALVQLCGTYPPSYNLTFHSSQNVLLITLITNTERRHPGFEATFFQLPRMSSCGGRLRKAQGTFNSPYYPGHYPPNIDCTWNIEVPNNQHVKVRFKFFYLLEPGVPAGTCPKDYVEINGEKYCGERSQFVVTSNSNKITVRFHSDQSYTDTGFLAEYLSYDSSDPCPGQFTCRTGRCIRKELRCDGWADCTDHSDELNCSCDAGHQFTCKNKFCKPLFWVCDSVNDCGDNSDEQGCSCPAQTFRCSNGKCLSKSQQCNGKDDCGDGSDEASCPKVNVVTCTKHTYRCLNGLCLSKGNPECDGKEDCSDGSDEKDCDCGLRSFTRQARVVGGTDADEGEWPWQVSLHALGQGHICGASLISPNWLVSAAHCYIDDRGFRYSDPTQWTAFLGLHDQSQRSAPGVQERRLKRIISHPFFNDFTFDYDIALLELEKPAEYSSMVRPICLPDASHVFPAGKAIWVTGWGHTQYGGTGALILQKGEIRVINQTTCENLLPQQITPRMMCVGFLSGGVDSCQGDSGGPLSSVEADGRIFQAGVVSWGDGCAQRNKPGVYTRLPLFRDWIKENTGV

[5] = residue fixed at P3 position of substrate library
[6] = residue fixed at P4 position of substrate library
[7] = residue fixed at P2 position, P1-Arg HyCoSuL, 100 μM, best recognized amino acid set to 100%

IC50 (TMPRSS2 [1]; read-out: TMPRSS2 IC50): 458 nM
Molecule: CC(C)CC[C@H](NC(=O)OCC1c2ccccc2-c2ccccc21)C(=O)N[C@@H](CCCNC(=N)N)C(=O)c1nc2ccccc2s1 [MF1164, (S)-4-methyl-1-[N-(S)-1-[(1,3-benzothiazol-2-yl)carbonyl]-4-guanidinobutylcarbamoyl] pentyl (9H-fluoren-9-yl)methanecarbamate]

IC50 (TMPRSS2 [1]; read-out: TMPRSS2 IC50): 0.167 nM
Molecule: N=C(N)NCCC[C@H](NC(=O)[C@H](CCc1ccc(O)cc1)NC(=O)OCC1c2ccccc2-c2ccccc21)C(=O)c1nc2ccccc2s1 [MF1163, (S)-3-(p-hydroxyphenyl)-1-[N-(S)-1-[(1,3-benzothiazol-2-yl)carbonyl]-4-guanidinobutylcarbamoyl] propyl (9H-fluoren-9-yl)methanecarbamate]

Continued, molecule first:

Molecule: N=C(N)NCCC[C@H](NC(=O)[C@@H](NC(=O)OCc1ccccc1)C1Cc2ccccc2C1)C(=O)c1nc2ccccc2s1 [MF2008, (S)-(2-indanyl)[N-(S)-1-[(1,3-benzothiazol-2-yl)carbonyl]-4-guanidinobutylcarbamoyl] methyl-phenylmethanecarbamate]
IC50 (TMPRSS2 [1]; read-out: TMPRSS2 IC50): 0.303 nM | IC50 (matriptase [2]): 75.3 nM

Molecule: C=CCOC(=O)CC[C@H](NC(=O)[C@@H]1Cc2ccccc2N1C(C)=O)C(=O)N[C@@H](Cc1ccc(F)cc1)C(=O)N[C@H](CCCNC(=N)N)C(=O)c1nc2ccccc2s1 [MF1067A, allyl (S)-4-[(S)-1-acetyl-2-indolinylcarbonylamino]-4-[N-(S)-2-(p-fluorophenyl)-1-[N-(R)-1-[(1,3-benzothiazol-2-yl)carbonyl]-4-guanidinobutylcarbamoyl]ethylcarbamoyl]butyrate]
IC50 (TMPRSS2 [1]): 0.431 nM

Molecule: N=C(N)NCCC[C@H](NC(=O)[C@H](Cc1ccccc1)NC(=O)[C@H](N)Cc1c[nH]c2ccccc12)C(=O)c1nc2ccccc2s1 [PK-1-18A1, N-[(S)-1-[(1,3-benzothiazol-2-yl)carbonyl]-4-guanidinobutyl](S)-2-[(R)-2-amino-3-(3-indolyl)propionylamino]-3-phenylpropionamide]
IC50 (TMPRSS2 [1]; read-out: TMPRSS2 IC50): 25.8 nM

Molecule: CC(=O)N[C@H](Cc1c[nH]c2ccccc12)C(=O)N[C@@H](CC(C)C)C(=O)N[C@@H](CCCNC(=N)N)C(=O)c1nc2ccc(C(=O)O)cc2s1 [PK-1-94, 2-[(S)-2-[(S)-2-[(R)-2-acetylamino-3-(3-indolyl)propionylamino]-4-methylvalerylamino]-5-guanidinovaleryl]-1,3-benzothiazole-6-carboxylic acid]
IC50 (TMPRSS2 [1]; read-out: TMPRSS2 IC50): 1.91 nM

Molecule: CC(=O)NCC(=O)N[C@@H](CCC(N)=O)C(=O)N[C@@H](Cc1ccccc1)C(=O)N[C@H](CCCNC(=N)N)C(=O)c1nc2ccccc2s1 [MM3122-1, N-[(S)-1-[N-(R)-1-[(1,3-benzothiazol-2-yl)carbonyl]-4-guanidinobutylcarbamoyl]-2-phenylethyl](S)-2-[(acetylaminomethyl)carbonylamino]glutaramide]
IC50 (TMPRSS2 [1]; read-out: TMPRSS2 IC50): 6.46 nM

Molecule: CCC(C)[C@H](NC(C)=O)C(=O)N[C@@H](CCC(=O)O)C(=O)N[C@@H](Cc1ccccc1)C(=O)N[C@H](CCCNC(=N)N)C(=O)c1nc2ccccc2s1 (stereo partly drawn) [MM4037-1, (S)-4-[(2S)-2-acetylamino-3-methylvalerylamino]-4-[N-(S)-1-[N-(R)-1-[(1,3-benzothiazol-2-yl)carbonyl]-4-guanidinobutylcarbamoyl]-2-phenylethylcarbamoyl]butyric acid]
IC50 (TMPRSS2 [1]; read-out: TMPRSS2 IC50): 0.385 nM

Molecule: CC(=O)N[C@@H](CCCCNC(=N)N)C(=O)N[C@@H](Cc1cncn1COCc1ccccc1)C(=O)N[C@@H](CCC(C)C)C(=O)N[C@@H](CCCNC(=N)N)C(=O)c1nc2ccccc2s1 [MM4031-2, N-[(S)-1-[(1,3-benzothiazol-2-yl)carbonyl]-4-guanidinobutyl](S)-2-[(S)-2-[(S)-1-acetylamino-5-guanidinopentylcarbonylamino]-3-{1-[(benzyloxy)methyl]-5-imidazolyl}propionylamino]-5-methylhexanamide]
IC50 (TMPRSS2 [1]; read-out: TMPRSS2 IC50): 9.39 nM

Molecule: N=C(N)NCCC[C@H](NC(=O)[C@H](Cc1ccccc1)NC(=O)[C@H](N)Cc1c[nH]c2ccccc12)C(=O)c1nc2ccc(C(=O)O)cc2s1 [PK-1-45A1, 2-[(S)-2-[(S)-2-[(R)-2-amino-3-(3-indolyl)propionylamino]-3-phenylpropionylamino]-5-guanidinovaleryl]-1,3-benzothiazole-6-carboxylic acid]
IC50 (TMPRSS2 [1]; read-out: TMPRSS2 IC50): 1.94 nM

Molecule: CC(=O)N[C@@H](CCCCNC(=N)N)C(=O)N[C@@H](Cc1cncn1COCc1ccccc1)C(=O)N[C@@H](CCC(C)C)C(=O)N[C@H](CCCNC(=N)N)C(=O)c1nc2ccccc2s1 [MM4031-1, N-[(R)-1-[(1,3-benzothiazol-2-yl)carbonyl]-4-guanidinobutyl](S)-2-[(S)-2-[(S)-1-acetylamino-5-guanidinopentylcarbonylamino]-3-{1-[(benzyloxy)methyl]-5-imidazolyl}propionylamino]-5-methylhexanamide]
IC50 (TMPRSS2 [1]; read-out: TMPRSS2 IC50): 7.54 nM

Molecule: CC(C)(C)C[C@H](NC(=O)OCc1ccccc1)C(=O)N[C@@H](CCCNC(=N)N)C(=O)c1nc2ccccc2s1 [MF2009, (S)-3,3-dimethyl-1-[N-(S)-1-[(1,3-benzothiazol-2-yl)carbonyl]-4-guanidinobutylcarbamoyl] butyl-phenylmethanecarbamate]
IC50 (TMPRSS2 [1]; read-out: TMPRSS2 IC50): 614 nM | IC50 (matriptase [2]): > 20000 nM

Molecule: N=C(N)NCCC[C@H](NC(=O)[C@H](CCCCNC(=O)OCc1ccccc1Cl)NC(=O)OCC1c2ccccc2-c2ccccc21)C(=O)c1nc2ccccc2s1 [MF1151, (S)-5-{[(o-chlorophenyl)methyl] (oxycarbonylamino)}-1-[N-(S)-1-[(1,3-benzothiazol-2-yl)carbonyl]-4-guanidinobutylcarbamoyl] pentyl (9H-fluoren-9-yl)methanecarbamate]
IC50 (TMPRSS2 [1]; read-out: TMPRSS2 IC50): 283 nM | IC50 (matriptase [2]): 11.1 nM

Molecule: C=CCOC(=O)CC[C@H](NC(=O)[C@@H]1Cc2ccccc2N1C(C)=O)C(=O)N[C@@H](Cc1ccc(F)cc1)C(=O)N[C@@H](CCCNC(=N)N)C(=O)c1nc2ccccc2s1 [MF1067B, allyl (S)-4-[(S)-1-acetyl-2-indolinylcarbonylamino]-4-[N-(S)-2-(p-fluorophenyl)-1-[N-(S)-1-[(1,3-benzothiazol-2-yl)carbonyl]-4-guanidinobutylcarbamoyl]ethylcarbamoyl]butyrate]
IC50 (TMPRSS2 [1]): 0.2 nM

Molecule: CC(=O)N[C@H]1Cc2ccc(cc2)Oc2ccc(cc2)C[C@@H](C(=O)N[C@@H](CCCNC(=N)N)C(=O)c2nc3ccccc3s2)NC(=O)[C@H](CC(C)C)NC1=O [VD5076B, N-[(S)-1-[(1,3-benzothiazol-2-yl)carbonyl]-4-guanidinobutyl]-(8S,11S,14S)-14-acetylamino-11-isobutyl-10,13-dioxo-2-oxa-9,12-diazatricyclo[14.2.2.2^3,^6]docosa-1(18),3,5,16,19,21-hexaene-8-carboxamide]
IC50 (TMPRSS2 [1]; read-out: TMPRSS2 IC50): 1.25 nM

Molecule: L-Ile
P2 Position Substrate Activity for TMPRSS2 (percent substrate cleavage/proteolysis) (TMPRSS2 [3]; residue fixed at P2 position of substrate library, best recognized amino acid set to 100%): 7.29% | P3 Position Various Amino Acids Substrate Activity, TMPRSS2 (percent substrate cleavage/proteolysis) (TMPRSS2 [3]; [5]): 13.26% | P4 Position Various Amino Acids Substrate Activity, TMPRSS2 (percent substrate proteolysis/cleavage) (TMPRSS2 [3]; [6]): 63.74% | P2 Position Substrate Activity for hepsin (percent substrate cleavage/proteolysis) (hepsin; [7]): 45.68% | P3 Position Various Amino Acids Substrate Activity, hepsin (percent substrate cleavage/proteolysis) (hepsin; [5]): 11.37% | P4 Position Various Amino Acids Substrate Activity, hepsin (percent substrate proteolysis/cleavage) (hepsin; [6]): 47.02% | P2 Position Substrate Activity for HGFA (percent substrate cleavage/proteolysis) (HGFA; [7]): 4.94% | P3 Position Various Amino Acids Substrate Activity, HGFA (percent substrate cleavage/proteolysis) (HGFA; [5]): 9.06% | P4 Position Various Amino Acids Substrate Activity, HGFA (percent substrate proteolysis/cleavage) (HGFA; [6]): 14.09% | P2 Position Substrate Activity for matriptase (percent substrate cleavage/proteolysis) (matriptase [4]; [7]): 3% | P3 Position Various Amino Acids Substrate Activity, matriptase (percent substrate cleavage/proteolysis) (matriptase [4]; [5]): 13% | P4 Position Various Amino Acids Substrate Activity, matriptase (percent substrate proteolysis/cleavage) (matriptase [4]; [6]): 32%
